Laboratory results from patent publication EP0908457B1, “3-(1,2-benzisothiazol- and isoxazol-5-Y1)-2,4(1H,3H)-pyrimidinedione or thione and 3-(1,2-benzisothiazol- and isoxazol-5-y1)-4(3H)-pyrimidinone or thione herbicidal agents” (BASF AKTIENGESELLSCHAFT, priority 1997, dated 1999).

Key:
[1] = tested on: Echinochloa oryzoides (Ard.) Fritsch.; assay: Preemergence weed control under flooded paddy conditions, ECHORC (Watergrass (Calif.)); format: in vivo; conditions: flooded paddy, rated three to four weeks after treatment; note: meaning of each grade not given here
Cyperus iria = assay: Preemergence weed control under flooded paddy conditions, CYPIR (Rice Flatsedge); format: in vivo; conditions: flooded paddy, rated three to four weeks after treatment; note: meaning of each grade not given here
[2] = tested on: Cyperus serotinus, Rottb.; assay: Preemergence weed control under flooded paddy conditions, CYPSE (Flatsedge); format: in vivo; conditions: rated three to four weeks after treatment; note: meaning of each grade not given here
[3] = tested on: Monochoria vaginalis, Presl.; assay: Preemergence weed control under flooded paddy conditions, MOOVA (Monochoria); format: in vivo; conditions: flooded paddy, rated three to four weeks after treatment; note: meaning of each grade not given here
Sagittaria pygmaea, L. = assay: Preemergence weed control under flooded paddy conditions, SAGPY (Arrowhead (Pygmaea)); format: in vivo; conditions: flooded paddy, rated three to four weeks after treatment; note: meaning of each grade not given here
[4] = tested on: Oryza sativa, (L.) Tebonnet; assay: Rice tolerance to post-transplant applications under flooded paddy conditions (Example 187), ORYSAT (Rice, Tebonnet); conditions: rated three to four weeks after treatment
[5] = Rate 0.0320 kg/ha, preemergence
[6] = Rate 0.0620 kg/ha, preemergence
[7] = Rate 0.1250 kg/ha, preemergence
[8] = Rate 0.2500 kg/ha, preemergence
[9] = 0.0313 kg/ha, preemergence weeds
[10] = 0.0625 kg/ha, preemergence weeds
[11] = 0.1250 kg/ha, preemergence weeds
[12] = 0.2500 kg/ha, preemergence weeds

**Q.** `C#CCC(C#N)(CC#C)c1nsc2ccc(-n3c(=O)cc(C(F)(F)F)n(C)c3=O)cc12` [Example 581, 1,2-Benzisothiazole-3-acetonitrile, 5-[3,6-dihydro-3-methyl-2,6-dioxo-4-(trifluoromethyl)-1(2H)-pyrimidinyl]-alpha,alpha-di-2-propynyl-] was tested. Which “herbicidal effect rating, ECHORC” value [1, 5] did it give?
**A.** Its value is 6.0.

**Q.** And the “herbicidal effect rating, ECHORC” value [1, 6]?
**A.** Its value is 8.5.

**Q.** And the “herbicidal effect rating, ECHORC” value [1, 7]?
**A.** Its value is 9.0.

**Q.** And the “herbicidal effect rating, ECHORC” value [1, 8]?
**A.** The value was 9.0.

**Q.** What about the “herbicidal effect rating, CYPIR” value (Cyperus iria; [5]) of the same compound?
**A.** The value was 3.0.

**Q.** What about the “herbicidal effect rating, CYPIR” value (Cyperus iria; [6]) of the same compound?
**A.** The value was 4.5.

**Q.** What about the “herbicidal effect rating, CYPIR” value (Cyperus iria; [7]) of the same compound?
**A.** Its value is 9.0.

**Q.** What about the “herbicidal effect rating, CYPIR” value (Cyperus iria; [8]) of the same compound?
**A.** The value was 9.0.

**Q.** And the “herbicidal effect rating, CYPSE” value [2, 5]?
**A.** Its value is 1.0.

**Q.** What about the “herbicidal effect rating, CYPSE” value [2, 6] of the same compound?
**A.** Its value is 1.5.

**Q.** And the “herbicidal effect rating, CYPSE” value [2, 7]?
**A.** Its value is 6.0.

**Q.** And the “herbicidal effect rating, CYPSE” value [2, 8]?
**A.** Its value is 8.0.

**Q.** What about the “herbicidal effect rating, MOOVA” value [3, 5] of the same compound?
**A.** Its value is 4.5.

**Q.** And the “herbicidal effect rating, MOOVA” value [3, 6]?
**A.** Its value is 4.5.

**Q.** What about the “herbicidal effect rating, MOOVA” value [3, 7] of the same compound?
**A.** Its value is 9.0.

**Q.** And the “herbicidal effect rating, MOOVA” value [3, 8]?
**A.** Its value is 9.0.

**Q.** And the “herbicidal effect rating, SAGPY” value (Sagittaria pygmaea, L.; [5])?
**A.** Its value is 3.0.

**Q.** And the “herbicidal effect rating, SAGPY” value (Sagittaria pygmaea, L.; [6])?
**A.** Its value is 9.0.

**Q.** And the “herbicidal effect rating, SAGPY” value (Sagittaria pygmaea, L.; [7])?
**A.** The value was 9.0.

**Q.** And the “herbicidal effect rating, SAGPY” value (Sagittaria pygmaea, L.; [8])?
**A.** Its value is 9.0.

**Q.** And the “herbicidal effect rating ORYSAT” value ([4]; Rate 0.0320 kg/ha)?
**A.** Its value is 1.5.

**Q.** And the “herbicidal effect rating ORYSAT” value ([4]; Rate 0.0620 kg/ha)?
**A.** Its value is 3.5.

**Q.** What about the “herbicidal effect rating ORYSAT” value ([4]; Rate 0.1250 kg/ha) of the same compound?
**A.** Its value is 6.0.

**Q.** What about the “herbicidal effect rating ORYSAT” value ([4]; Rate 0.2500 kg/ha) of the same compound?
**A.** The value was 7.0.

**Q.** How did the “herbicidal effect rating, ECHORC” value [1, 9] turn out when `C=CCOCc1nsc2ccc(-n3c(=O)cc(C(F)(F)F)n(C)c3=O)cc12` [Example 196, 3-{3-[(Allyloxy)methyl]-1,2-benzisothiazol-5-yl}-1-methyl-6-(trifluoromethyl)-2,4(1H,3H)-pyrimidinedione] was run?
**A.** Its value is 0.0.

**Q.** And the “herbicidal effect rating, ECHORC” value [1, 10]?
**A.** The value was 2.0.

**Q.** And the “herbicidal effect rating, ECHORC” value [1, 11]?
**A.** The value was 4.0.

**Q.** And the “herbicidal effect rating, ECHORC” value [1, 12]?
**A.** Its value is 4.0.

**Q.** And the “herbicidal effect rating, CYPIR” value (Cyperus iria; [9])?
**A.** Its value is 0.0.

**Q.** What about the “herbicidal effect rating, CYPIR” value (Cyperus iria; [10]) of the same compound?
**A.** The value was 0.0.

**Q.** And the “herbicidal effect rating, CYPIR” value (Cyperus iria; [11])?
**A.** The value was 1.0.

**Q.** What about the “herbicidal effect rating, CYPIR” value (Cyperus iria; [12]) of the same compound?
**A.** The value was 4.0.

**Q.** And the “herbicidal effect rating, CYPSE” value [2, 9]?
**A.** Its value is 2.0.

**Q.** And the “herbicidal effect rating, CYPSE” value [2, 10]?
**A.** The value was 4.0.

**Q.** What about the “herbicidal effect rating, CYPSE” value [2, 11] of the same compound?
**A.** Its value is 6.0.

**Q.** What about the “herbicidal effect rating, CYPSE” value [2, 12] of the same compound?
**A.** Its value is 9.0.

**Q.** What about the “herbicidal effect rating, MOOVA” value [3, 9] of the same compound?
**A.** The value was 9.0.

**Q.** And the “herbicidal effect rating, MOOVA” value [3, 10]?
**A.** The value was 9.0.

**Q.** And the “herbicidal effect rating, MOOVA” value [3, 11]?
**A.** The value was 9.0.

**Q.** What about the “herbicidal effect rating, MOOVA” value [3, 12] of the same compound?
**A.** The value was 9.0.

**Q.** What about the “herbicidal effect rating, SAGPY” value (Sagittaria pygmaea, L.; [9]) of the same compound?
**A.** Its value is 0.0.

**Q.** What about the “herbicidal effect rating, SAGPY” value (Sagittaria pygmaea, L.; [10]) of the same compound?
**A.** Its value is 0.0.

**Q.** What about the “herbicidal effect rating, SAGPY” value (Sagittaria pygmaea, L.; [11]) of the same compound?
**A.** Its value is 0.0.

**Q.** And the “herbicidal effect rating, SAGPY” value (Sagittaria pygmaea, L.; [12])?
**A.** The value was 0.0.

**Q.** What about the “herbicidal effect rating, ORYSAT (rice tolerance)” value (shortened to “herbicidal effect rating, ORYSAT”) ([4]; 0.0313 kg/ha) of the same compound?
**A.** The value was 4.0.

**Q.** What about the “herbicidal effect rating, ORYSAT” value ([4]; 0.0625 kg/ha) of the same compound?
**A.** Its value is 6.0.

**Q.** What about the “herbicidal effect rating, ORYSAT” value ([4]; 0.1250 kg/ha) of the same compound?
**A.** Its value is 8.0.

**Q.** What about the “herbicidal effect rating, ORYSAT” value ([4]; 0.2500 kg/ha) of the same compound?
**A.** Its value is 8.0.

**Q.** Which “herbicidal effect rating, ECHORC” value ([1]; 0.0313 kg/ha, preemergence) does the source give for `COc1noc2ccc(-n3c(=O)cc(C(F)(F)F)n(C)c3=O)cc12` [Example 42, 3-(3-Methoxy-1,2-benzisoxazol-5-yl)-1-methyl-6-(trifluoromethyl)-2,4(1H,3H)-pyrimidinedione] here?
**A.** Its value is 0.0.

**Q.** And the “herbicidal effect rating, ECHORC” value ([1]; 0.0625 kg/ha, preemergence)?
**A.** The value was 0.0.

**Q.** What about the “herbicidal effect rating, ECHORC” value ([1]; 0.1250 kg/ha, preemergence) of the same compound?
**A.** Its value is 0.0.

**Q.** What about the “herbicidal effect rating, ECHORC” value ([1]; 0.2500 kg/ha, preemergence) of the same compound?
**A.** The value was 0.0.

**Q.** What about the “herbicidal effect rating, CYPIR” value (Cyperus iria; 0.0313 kg/ha, preemergence) of the same compound?
**A.** The value was 0.0.

**Q.** And the “herbicidal effect rating, CYPIR” value (Cyperus iria; 0.0625 kg/ha, preemergence)?
**A.** The value was 0.0.

**Q.** What about the “herbicidal effect rating, CYPIR” value (Cyperus iria; 0.1250 kg/ha, preemergence) of the same compound?
**A.** The value was 0.0.

**Q.** And the “herbicidal effect rating, CYPIR” value (Cyperus iria; 0.2500 kg/ha, preemergence)?
**A.** Its value is 0.0.

**Q.** What about the “herbicidal effect rating, CYPSE” value ([2]; 0.0313 kg/ha, preemergence) of the same compound?
**A.** Its value is 0.0.

**Q.** What about the “herbicidal effect rating, CYPSE” value ([2]; 0.0625 kg/ha, preemergence) of the same compound?
**A.** Its value is 0.0.

**Q.** What about the “herbicidal effect rating, CYPSE” value ([2]; 0.1250 kg/ha, preemergence) of the same compound?
**A.** The value was 0.0.

**Q.** What about the “herbicidal effect rating, CYPSE” value ([2]; 0.2500 kg/ha, preemergence) of the same compound?
**A.** The value was 0.0.

**Q.** What about the “herbicidal effect rating, MOOVA” value ([3]; 0.0313 kg/ha, preemergence) of the same compound?
**A.** The value was 0.0.

**Q.** What about the “herbicidal effect rating, MOOVA” value ([3]; 0.0625 kg/ha, preemergence) of the same compound?
**A.** The value was 0.0.

**Q.** And the “herbicidal effect rating, MOOVA” value ([3]; 0.1250 kg/ha, preemergence)?
**A.** Its value is 0.0.

**Q.** What about the “herbicidal effect rating, MOOVA” value ([3]; 0.2500 kg/ha, preemergence) of the same compound?
**A.** Its value is 0.0.

**Q.** What about the “herbicidal effect rating, SAGPY” value (Sagittaria pygmaea, L.; 0.0313 kg/ha, preemergence) of the same compound?
**A.** The value was 0.0.

**Q.** What about the “herbicidal effect rating, SAGPY” value (Sagittaria pygmaea, L.; 0.0625 kg/ha, preemergence) of the same compound?
**A.** Its value is 0.0.

**Q.** What about the “herbicidal effect rating, SAGPY” value (Sagittaria pygmaea, L.; 0.1250 kg/ha, preemergence) of the same compound?
**A.** The value was 0.0.

**Q.** What about the “herbicidal effect rating, SAGPY” value (Sagittaria pygmaea, L.; 0.2500 kg/ha, preemergence) of the same compound?
**A.** Its value is 0.0.

**Q.** And the “herbicidal effect rating, ORYSAT” value ([4]; 0.0313 kg/ha)?
**A.** Its value is 0.0.

**Q.** And the “herbicidal effect rating, ORYSAT” value ([4]; 0.0625 kg/ha)?
**A.** Its value is 0.0.

**Q.** And the “herbicidal effect rating, ORYSAT” value ([4]; 0.1250 kg/ha)?
**A.** The value was 0.0.

**Q.** What about the “herbicidal effect rating, ORYSAT” value ([4]; 0.2500 kg/ha) of the same compound?
**A.** Its value is 0.0.
